According to patent US10113968B2, “Specific detection and quantification of cardiolipin and isolated mitochondria by positively charged AIE fluorogens and method of manufacturing thereof” (priority 2013, dated 2018):

Assays:
[1] = Fluorescence response of dye to CL-containing (TOCL/DOPC) and CL-free (DOPC) LUVs; conditions: for emission with CL-containing vesicles: TOCL/DOPC 1:1, 25 mM HEPES pH 7.4, λex=350 nm
Description: CL-containing vesicles are composed of TOCL/DOPC (1:1 molar ratio), and CL-free vesicles are composed of pure DOPC, respectively, in a 25 mM HEPES buffer at pH 7.4. [dye]=10 μM; [lipid]total=22 μM; λex=350 nm.
FIG. 3A is a plot of the fluorescence enhancement (I/I0−1) of TTAPE-Me at 480 nm with CL-containing and CL-free vesicles.
FIG. 3B is the linear region of the I/I0−1 value versus CL concentration. [dye]=10 μM; λex=350 nm.
FIG. 4B is a plot of the fluorescence enhancement at 480 nm versus CL content. [dye]=10 μM; [lipid]total=22 μM; λex=350 nm.
CL-containing and CL-free vesicles are composed of TOCL/DOPC (1:1 molar ratio) and pure DOPC, respectively, in a 25 mM HEPES buffer at pH 7.4. [dye]=10 μM; [lipid]total=22 μM; λex=350 nm.
The fluorescence enhancement (I/I0−1) of TTAPE-Me at 480 nm is in a linear fashion in the CL concentration of 0-10 μM (FIG. 3B), which lies in the physiological range of CL in mitochondrial membrane. Linear detection of CL can also be obtained with the varying content of TOCL (2-50% TOCL) in the vesicles (FIG. 4A-4B). The results imply that flexible TTAPE-Me to CL ratio is allowed in the detection and quantification of CL. In contrast, conventional NAO requires strict 2:1 ratio of NAO/CL for quantitative measurement. Moreover, the detection of CL can be done immediately upon mixing the vesicles with the probe without any extra treatment.
To determine whether TTAPE-Me can specifically detect CL, two types of large unilamellar vesicles (LUVs) 100-200 nm in diameter were prepared (FIG. 2A-2B). The CL-free vesicles were prepared by pure 1,2-dioleoyl-sn-glycero-[…] (DOPC), which is the most abundant phospholipid in eukaryotic membranes. CL-containing vesicles were fabricated by the mixture of 1,1′,2,2′-tetraoleoyl cardiolipin (TOCL) and DOPC, in which the zwitterionic DOPC is used to stabilize the vesicles.

[2] = Fluorescence response to vesicles of different single mitochondrial lipids; conditions: 20% TOCL, 100% DOPC, 40% DPPE, 2% soy PI, 1% DOPS, 2% SM, rest DOPC; [dye]=10 μM; [lipid]total=22 μM
Description: (§1) Emission spectra of (C) TTAPE-Me and (D) NAO with CL-containing and CL-free all-component vesicles are shown. (E) Bar chart of the change in fluorescence intensity shown in panels C and D (red: CL-containing vesicles, blue: CL-free vesicles). [dye]=10 μM; [lipid]total=22 μM; for TTAPE-Me: λex=350 nm and λem=480 nm; for NAO: λex=499 nm and λem=530 nm.
To further evaluate the specificity of TTAPE-Me towards CL, the response of TTAPE-Me to other major lipids found on mitochondrial membranes was examined. The other major lipids evaluated were 1,2-dipalmitoleoyl-sn-glycero-3-phosphoethanolamine (DPPE):
Six different types of LUVs were fabricated and were composed of each of the above lipids and TOCL and DOPC at the exact percentage as mitochondrial membrane, with the remaining percentage of each type of LUV filled by DOPC.
While DOPS and PI are also negatively charged, they carry only one charge per molecule and share only 1% and 2% of the total mitochondrial membrane lipids, respectively (CL for ˜20%).

[3] = Fluorescence response to CL-containing and CL-free all-component LUVs; conditions: [dye]=10 μM
Description: as §1
Meanwhile, to mimic the mitochondrial membranes, CL-containing and CL-free all-component LUVs were prepared. The CL-containing and CL-free all-component LUVs were composed by the mixture of all the above mentioned lipids at their physiological ratios (FIG. 9A-9B). […] With the CL-containing LUVs, the greenish-blue fluorescence is enhanced by over 3-fold (FIGS. 7C & E). Parallel experiments were conducted with NAO as the probe. NAO is a turn-off sensor whose fluorescence is decreased in the presence of CL (FIG. 7D). However, CL is not the only lipid that induces the decrease of NAO signals—other lipids such as DPPE, PI, or DOPS, can also induce the decrease of NAO signals to a large extent (FIG. 7B).

[4] = background statement; cited from earlier work
[5] = Isothermal titration calorimetry (ITC) of CL-containing vesicles with TTAPE-Me; format: binding; conditions: 25° C., CL-containing vesicles TOCL/DOPC 1:1, curve fitting, read-out: dissociation constant
Description: [dye]=10 μM; [lipid]total=22 μM; λex=350 nm. (B) Job plot for determination of the binding stoichiometry of TTAPE-Me to CL-containing vesicles. The total concentration of TTAPE-Me and CL is kept at 20 μM. (C) calorimetric curves for titration of CL-containing vesicles with serial injections of TTAPE-Me at 25° C. (D) Binding isotherm as a function of [TTAPE-Me]/[lipid]total molar ratio. CL-containing vesicles are composed of TOCL and DOPC (1:1 molar ratio).
According to the AIE principle, TTAPE-Me is only fluorescent when bound, and thus the fluorescence can report the binding of TTAPE-Me to CL-containing vesicles. The emission intensity varying ratios of TTAPE-Me to CL-containing LUVs is then recorded and correlated to a Job plot (FIG. 5B). The plot has a peak at ˜0.67, corresponding to a 2:1 binding ratio for TOCL to TTAPE-Me. The binding ratio perfectly matches the charge ratio, providing further support that the binding of TTAPE-Me towards CL is primarily driven by electrostatic interaction. […] The binding curve was generated by integration of the area of each injection peak followed by the subtraction of the dilution heat of dye molecules (FIG. 5D).

[6] = tested on: pUC 18 DNA, 2686 bp; assay: Fluorescence of TTAPE-Me in the presence of plasmid DNA; conditions: wide range of DNA concentrations; [dye]=10 μM; λex=350 nm
Description: (TTAPE-Me with CL-containing LUVs is shown for comparison) [dye]=10 μM; λex=350 nm.
On the other hand, one might think that the negatively charged mitochondrial DNA (mtDNA) may interfere with the detection of CL by TTAPE-Me.

[7] = tested on: isolated mitochondria; assay: Quantification and staining of isolated yeast mitochondria by fluorescence; design: species or system S. cerevisiae strain YPH 500; conditions: SEM buffer pH 7.2; [dye]=10 μM; λex=350 nm; emission at 480 nm
Description: Individual mitochondria from S. cerevisiae strain YPH 500 have been isolated and calibrated by Biuret test. […] In contrast, time-consuming and intricate procedures are involved when using NAO for the quantification of isolated mitochondria. The isolated mitochondria are fixed by formaldehyde, followed by multiple rinsing, centrifugation and resuspension steps. Further, the signal-to-noise ratio by using NAO is much smaller, likely due to the strong background of NAO in solution.

[8] = [dye]=10 μM, [lipid]total=22 μM

| Kd [5] [nM] | Compound | emission with CL-containing vesicles [1, 8] | fluorescence response to vesicles of different lipid contents (selectivity) [2] | fluorescence in the presence of CL (all-component LUVs) ([3]; λex=499 nm, λem=530 nm) | water-solubility [4] | fluorescence with CL-containing vesicles on increase of NaCl concentration [1, 8] | emission with CL-free vesicles ([1]; pure DOPC vesicles, increasing total lipid concentration) | emission spectrum with CL-free all-component LUVs ([3]; [lipid]total=22 μM) | fluorescence enhancement with CL-containing all-component LUVs ([3]; [lipid]total=22 μM, λex=350 nm, λem=480 nm) | fluorescence in the presence of plasmids [6] | relation of fluorescence intensity to mitochondria concentration [7] |
| --- | --- | --- | --- | --- | --- | --- | --- | --- | --- | --- | --- |
|  | O=S(=O)([O-])CCCOc1ccc(/C(=C(\c2ccccc2)c2ccc(OCCCS(=O)(=O)[O-])cc2)c2ccccc2)cc1.[Na+].[Na+] [BSPOTPE, reference compound] | no remarkable fluorescence enhancement |  |  |  |  |  |  |  |  |  |
|  | CCCCCCCCC[n+]1c2cc(N(C)C)ccc2cc2ccc(N(C)C)cc21.[Br-] [NAO, 10-N-nonyl acridine orange, reference compound] |  | poor selectivity | decreased | poor water-solubility |  |  |  |  |  |  |
| 2080 | C[N+](C)(C)CCOc1ccc(C(=C(c2ccc(OCC[N+](C)(C)C)cc2)c2ccc(OCC[N+](C)(C)C)cc2)c2ccc(OCC[N+](C)(C)C)cc2)cc1.[Br-].[Br-].[Br-].[Br-] [TTAPE-Me, 1,1,2,2-tetrakis[4-(2-trimethylammonio-ethoxy)phenyl]ethene tetrabromide] | turned on | selectively turned on with the TOCL vesicles |  |  | diminishes | remains rather weak | remains identical to that of the free dye in buffer | over 3 fold | no fluorescence enhancement | linear relationship |
